Experimental data from EP0322748B1, “Antibiotic NK86-0279, process for production of the same and application of the same” (NIPPON KAYAKU KABUSHIKI KAISHA, priority 1987, dated 1989).
Values after ≈ are worked out from the molar mass of the structure shown.

Legend:
[1] = tested on: vascularization by the Ehrlich ascites tumor cells crude extract; assay: vascularization-inhibitory effect, corneal assay; assay type: in vivo; conditions: slow-releasing pellet in rabbit cornea, compared with a control group
Protocol: The vascularization-inhibitory effect of the compound of the present invention was examined by corneal assay reported by M.A. Gimbrone et al. (J. National Cancer Inst., 52, 413 (1974)). Namely, the center of the cornea of the eye of a rabbit was incised with a knife at a length of approximately 2 mm to thereby form a pouch. Then a slow-releasing pellet containing 100 µg of a crude extract of Ehrlich ascites tumor cells, which had been preliminarily prepared according to a method proposed by R. Langer et al. (Nature, 263, 797 […]), was introduced into the pouch. Further another slow-releasing pellet containing 0.3 to 81 µg of the compound of the present invention was introduced thereinto so as to contact these pellets with each other. Then the degree of vascularization was observed four, six, eight and ten days after the introduction.

[2] = tested on: mouse breast cancer (Ehrlich B); assay: anti-cancer action against grafted mouse breast cancer, tumor volume; assay type: in vivo
Text: The anti-cancer action of the compound of the present invention against mouse lung cancer (lewis lung carcinoma) and mouse breast cancer (Ehrlich B) was examined. 1 x 10⁶ mouse lung cancer cells or mouse breast cancer cells were grafted into a subcutaneous portion of the groin of an eight week-old male BDF₁ or ICR mouse, and the compound of the present invention was intraperitoneally administered to the mouse in various concentrations every day from two days after the graft once a day for 9 days. On the second day after completion of the administration, the minor axis and the major axis of the tumor were measured, and the volume of the tumor was determined by using the following equation: (minor axis)² x […]/2 [formula] . Then, the percentage inhibition of proliferation of each tumor with respect to the compound of the present invention was determined from the ratio of the volume of the tumor on the groups of administration of the compound of the present invention relative to that on the control group.

[3] = tested on: bovine adrenal capillary endothelial cells; assay: growth-inhibitory effect on endothelial cells, Coulter counter; assay type: cell-based; conditions: Bos taurus, Endothelial cell, 72 h, three days after the addition
Protocol: The growth-inhibitory effect of the compound of the present invention on endothelial cells was examined. A 96-well plate was inoculated with bovine adrenal capillary endothelial cells at a ratio of 1 x 10⁴ cells per well. One day after the inoculation, the compound of the present invention was added thereto at various concentrations. Cells in each well were counted with a Coulter counter three days after the addition to thereby evaluate the growth-inhibitory effect of the test compound on the capillary endothelial cells. […] Thus the IC₅₀ of the compound of the present invention on the endothelial cells was 0.0003 µg/ml, showing a strong growth-inhibitory effect.

solubility = assay type: physicochemical
[4] = tested on: mouse pulmonary cancer cells (LL); assay: growth-inhibitory effect on mouse pulmonary cancer cells, dye exclusion method; assay type: cell-based; conditions: 72 h
Protocol: (§1) The growth-inhibitory effects of the compound of the present invention on mouse pulmonary cancer cells (LL) and human plumonary cancer cells (PC-3) were examined.
(§2) A 96-well plate was inoculated with mouse pulmonary cancer cells at a ratio of 8.0 x 10² cells per well, while another 96-well plate was inoculated with human pulmonary cancer cells at a ratio of 2.5 x 10³ per well. These cells were incubated in an incubator at 37°C under 5 % CO₂ for 24 hours. Then the compound of the present invention was added thereto at various concentrations. Cells in each well were counted by the dye exclusion method three days after the addition to thereby evaluate the growth-inhibitory effect of the test compound on the mouse pulmonary cancer cells (LL) and that on the human pulmonary cancer cells (PC-3).

[5] = tested on: mouse malignant melanoma (B16 melanotic melanoma); assay: in-vivo test by peroral administration against mouse malignant melanoma, tumor volume; design: species or system C57BL/6 mouse
Text: The anti-cancer action of the compound of the present invention against mouse malignant melanoma (B16 melanotic melanoma) was examined. 5 x 10⁵ mouse malignant melanoma cells were inoculated into a subcutaneous portion of the right body side of a 6 week-old male C57BL/6 mouse, and the compound of the present invention was perorally administered to the mouse in various concentrations every day from the next day or from 7 days after the inoculation once a day for 5 days. On the 11 days after the inoculation, the minor axis and the major axis of the tumor were measured, and the volume of the tumor was determined by using the following equation: (minor axis)² x […] [formula] . Then, the percentage inhibition of proliferation of each tumor with respect to the compound of the present invention was determined from the ratio of the volume of the tumor on the groups of administration of the compound of the present invention relative to that on the control group.

[6] = tested on: human pulmonary cancer cells (PC-3); assay: growth-inhibitory effect on human pulmonary cancer cells, dye exclusion method; assay type: cell-based; conditions: 72 h
Protocol: as §1, §2

Rhizopus hangchao = assay: antifungal spectrum (minimum inhibitory concentration on agar); assay type: cell-based; conditions: Czapek Dox solution agar
Text: (§3) The antifungal spectrum of the compound of the present invention was examined.

[7] = tested on: Sporobolomyces salmonicolor; assay: as above; assay type: cell-based; conditions: Czapek Dox solution agar
Text: as §3

Candida albicans = assay: as above; assay type: cell-based; conditions: Czapek Dox solution agar
Text: as §3

Glomerella cingulata = assay: as above; assay type: cell-based; conditions: Colletotrichum gloeosporioides; Czapek Dox solution agar
Text: as §3

Torula herbarum = assay: as above; assay type: cell-based; conditions: Czapek Dox solution agar
Text: as §3

Botrytis cinerea = assay: as above; assay type: cell-based; conditions: potato sucrose agar medium was used
Text: as §3

CCC1C=CC=CCC(C)C(O)C(C)(O)C(=O)C(C)C(O)C(C)C(=O)C(C)C(O)C(C)C=CC(=O)OC2C(C)C(CC1)OC1(OC(CC(C)O)C(C)CC1=O)C2CC (centres unmarked) [NK86-0279]
degree of vascularization ([1]; 1 µg or above): significantly retarded till the fourth day
degree of vascularization ([1]; 1.7 µg or above): till the eighth day
Growth-inhibitory ratio (tumor volume) ([2]; 0.032 mg/kg intraperitoneally once a day for 9 days): 22.5%
Growth-inhibitory ratio (tumor volume) ([2]; 0.063 mg/kg intraperitoneally once a day for 9 days): -0.4%
Growth-inhibitory ratio (tumor volume) ([2]; 0.125 mg/kg intraperitoneally once a day for 9 days): 44.3%
Growth-inhibitory ratio (tumor volume) ([2]; 0.250 mg/kg intraperitoneally once a day for 9 days, 0.25 mg/kg): 67%
Growth-inhibitory ratio (tumor volume) ([2]; 0.500 mg/kg intraperitoneally once a day for 9 days): 61.7%
inhibition at 0.000128 µg/mL ([3]; 0.000128 µg/ml, read-out: Groth-inhibitory ratio): 35.4%
inhibition at 0.00064 µg/mL ([3]; 0.00064 µg/ml, read-out: Groth-inhibitory ratio): 63.2%
inhibition at 0.0032 µg/mL ([3]; 0.0032 µg/ml, read-out: Groth-inhibitory ratio): 78.4%
inhibition at 0.016 µg/mL ([3]; 0.016 µg/ml, read-out: Groth-inhibitory ratio): 89.7%
IC50 ([3]; endothelial cells, read-out: IC₅₀): 0.0003 µg/mL (≈ 0.000366 µM)
solubility (solubility; in hexane): hardly soluble
solubility (solubility; in methanol, acetone, ethyl acetate and dimethyl sulfoxide): soluble
solubility (solubility; in organic solvents such as methanol, acetone, ethyl acetate and ethanol): soluble
solubility (solubility; in water): hardly soluble
IC50 ([4]; mouse pulmonary cancer cells (LL), three days after the addition, read-out: IC₅₀): 0.0098 µg/mL (≈ 0.012 µM)
inhibition at 0.024 µg/mL ([4]; Mus musculus, LL, 0.024 µg/ml, read-out: Growth-inhibitory ratio): 30.4%
inhibition at 0.061 µg/mL ([4]; Mus musculus, LL, 0.061 µg/ml, read-out: Growth-inhibitory ratio): -5.7%
inhibition at 0.098 µg/mL ([4]; Mus musculus, LL, 0.098 µg/ml, read-out: Growth-inhibitory ratio): 50%
inhibition at 0.39 µg/mL ([4]; Mus musculus, LL, 0.39 µg/ml, read-out: Growth-inhibitory ratio): 61%
inhibition at 1.56 µg/mL ([4]; Mus musculus, LL, 1.56 µg/ml, read-out: Growth-inhibitory ratio): 92.1%
inhibition at 6.25 µg/mL ([4]; Mus musculus, LL, 6.25 µg/ml, read-out: Growth-inhibitory ratio): 114%
inhibition at 25 µg/mL ([4]; Mus musculus, LL, 25 µg/ml, read-out: Growth-inhibitory ratio): 110%
inhibition at 100 µg/mL ([4]; Mus musculus, LL, 100 µg/ml, read-out: Growth-inhibitory ratio): 109%
Growth-inhibitory ratio (tumor volume) ([5]; 0.5 mg/kg perorally once a day for 5 days, administered from 7 days after the inoculation): 44.7%
Growth-inhibitory ratio (tumor volume) ([5]; 0.5 mg/kg perorally once a day for 5 days, administered from the next day of the inoculation): 90.5%
Growth-inhibitory ratio (tumor volume) ([5]; 1.0 mg/kg perorally once a day for 5 days, administered from 7 days after the inoculation): 72.3%
Growth-inhibitory ratio (tumor volume) ([5]; 1.0 mg/kg perorally once a day for 5 days, administered from the next day of the inoculation): 94.6%
Growth-inhibitory ratio (tumor volume) ([5]; 2.0 mg/kg perorally once a day for 5 days, administered from 7 days after the inoculation): 57.4%
Growth-inhibitory ratio (tumor volume) ([5]; 2.0 mg/kg perorally once a day for 5 days, administered from the next day of the inoculation): 69.5%
Growth-inhibitory ratio (tumor volume) ([5]; 4.0 mg/kg perorally once a day for 5 days, administered from 7 days after the inoculation): 75.5%
Growth-inhibitory ratio (tumor volume) ([5]; 4.0 mg/kg perorally once a day for 5 days, administered from the next day of the inoculation): 64.5%
Growth-inhibitory ratio (tumor volume) ([5]; 8.0 mg/kg perorally once a day for 5 days, administered from 7 days after the inoculation): 67.0%
Growth-inhibitory ratio (tumor volume) ([5]; 8.0 mg/kg perorally once a day for 5 days, administered from the next day of the inoculation): 66.0%
IC50 ([6]; human pulmonary cancer cells (PC-3), three days after the addition, read-out: IC₅₀): 2.13 µg/mL (≈ 2.6 µM)
inhibition at 0.024 µg/mL ([6]; Homo sapiens, PC-3, 0.024 µg/ml, read-out: Growth-inhibitory ratio): 25.1%
inhibition at 0.061 µg/mL ([6]; Homo sapiens, PC-3, 0.061 µg/ml, read-out: Growth-inhibitory ratio): 12%
inhibition at 0.098 µg/mL ([6]; Homo sapiens, PC-3, 0.098 µg/ml, read-out: Growth-inhibitory ratio): 28.1%
inhibition at 0.39 µg/mL ([6]; Homo sapiens, PC-3, 0.39 µg/ml, read-out: Growth-inhibitory ratio): 28%
inhibition at 1.56 µg/mL ([6]; Homo sapiens, PC-3, 1.56 µg/ml, read-out: Growth-inhibitory ratio): 38.1%
inhibition at 6.25 µg/mL ([6]; Homo sapiens, PC-3, 6.25 µg/ml, read-out: Growth-inhibitory ratio): 85.9%
inhibition at 25 µg/mL ([6]; Homo sapiens, PC-3, 25 µg/ml, read-out: Growth-inhibitory ratio): 99.3%
inhibition at 100 µg/mL ([6]; Homo sapiens, PC-3, 100 µg/ml, read-out: Growth-inhibitory ratio): 97.2%
MIC (Rhizopus hangchao): 6.25 µg/mL (≈ 7.63 µM)
MIC [7]: 6.25 µg/mL (≈ 7.63 µM)
MIC (Candida albicans): > 100 µg/mL
MIC (Glomerella cingulata): 6.25 µg/mL (≈ 7.63 µM)
MIC (Torula herbarum): 3.13 µg/mL (≈ 3.82 µM)
MIC (Botrytis cinerea): 12.5 µg/mL (≈ 15.3 µM)
